# Assay results published in the NIST ThermoML archive (doi:10.1016/j.jct.2016.12.006).
# ± gives the expanded uncertainty stated by the source.
# Assay: refractive index (Na D-line) (dimensionless)
# Conditions: 303.15 K; 101.33 kPa; Liquid; Standard Abbe refractometry
row,refractive index,Structure (SMILES)
1,1.3701 ± 0.004,CC(=O)OC(C)C [1-methylethyl ethanoate]
2,1.3196 ± 0.004,"OCC(F)(F)C(F)F [2,2,3,3-tetrafluoro-1-propanol]"
3,1.3675 ± 0.004,CCOC(C)=O [ethyl acetate]
